We go through 34 compounds from US8338465B2, “Cyclic carboxylic acid rhodanine derivatives for the treatment and prevention of tuberculosis” (priority 2006, dated 2012).

Bounds are passed on as bounds.

The experiment deals with T1, dihydrolipoamide acyltransferase (DlaT) (Mycobacterium tuberculosis, UniProt P9WIS7).
T1 sequence (P9WIS7 1-553): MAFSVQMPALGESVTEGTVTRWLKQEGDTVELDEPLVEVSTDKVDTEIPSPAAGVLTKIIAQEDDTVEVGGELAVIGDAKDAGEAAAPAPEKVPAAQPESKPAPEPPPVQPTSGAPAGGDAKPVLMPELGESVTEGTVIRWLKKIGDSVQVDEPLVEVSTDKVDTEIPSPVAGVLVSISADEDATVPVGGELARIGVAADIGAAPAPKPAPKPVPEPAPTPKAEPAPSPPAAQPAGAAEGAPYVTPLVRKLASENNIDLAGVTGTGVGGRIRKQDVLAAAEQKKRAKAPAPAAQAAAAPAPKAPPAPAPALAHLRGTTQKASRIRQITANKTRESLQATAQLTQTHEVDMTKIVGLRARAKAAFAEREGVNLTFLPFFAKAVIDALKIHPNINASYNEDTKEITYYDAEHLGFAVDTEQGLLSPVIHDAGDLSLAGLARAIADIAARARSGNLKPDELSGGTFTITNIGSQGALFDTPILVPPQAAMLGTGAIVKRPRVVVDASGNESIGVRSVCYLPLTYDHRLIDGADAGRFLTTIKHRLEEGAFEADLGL
Kind of experiment: DlaT inhibition (Dlat IC50); DTNB peroxidase assay with Lpd, DlaT and AhpD. The settings on record: Dlat IC50 category. It is filed as biochemical.
A word on the IC50: it is the midpoint of a concentration-inhibition curve. A lower IC50 goes with greater potency in that assay. The compound `CC(C(=O)O)N1C(=O)C(=Cc2ccc(-c3ccccc3Cl)o2)SC1=S` (stereo not shown) [Compound B94] had an IC50 of 11 to 40 µM. The same measure for `CC(C(=O)O)N1C(=O)C(=Cc2ccc(-c3cccc(Cl)c3)o2)SC1=S` (stereo not shown) [Compound B95]: 11 to 40 µM; for `CC(C(=O)O)N1C(=O)C(=Cc2ccc(-c3ccc(Cl)cc3)o2)SC1=S` (stereo not shown) [Compound B96]: less than 10 µM.

For the compound `Cc1ccccc1-c1ccc(C=C2SC(=S)N(C(C)C(=O)O)C2=O)o1` (stereo not shown) [Compound B97], the IC50 is 11 to 40 µM. The compound `CC(C(=O)O)N1C(=O)C(=Cc2ccc(-c3ccc(F)cc3)o2)SC1=S` (stereo not shown) [Compound B98] showed an IC50 of 41 to 80 µM.

As to `CC(C(=O)O)N1C(=O)C(=Cc2ccc(-c3ccccc3C(F)(F)F)o2)SC1=S` (stereo not shown) [Compound B99], the half-maximal inhibitory concentration (IC50) is 11 to 40 µM.

In turn, `CC(C(=O)O)N1C(=O)C(=Cc2ccc(-c3cccc(C(F)(F)F)c3)o2)SC1=S` (stereo not shown) [Compound B100] came in with an IC50 of less than 10 µM. For `CC(C)C(C(=O)O)N1C(=O)C(=Cc2ccc(-c3ccccc3Cl)o2)SC1=S` (stereo not shown) [Compound B101], the IC50 is less than 10 µM. In the case of `CC(C)C(C(=O)O)N1C(=O)C(=Cc2ccc(-c3cccc(Cl)c3)o2)SC1=S` (stereo not shown) [Compound B102] it was 11 to 40 µM; in that of `CC(C)C(C(=O)O)N1C(=O)C(=Cc2ccc(-c3ccc(Cl)cc3)o2)SC1=S` (stereo not shown) [Compound B103], less than 10 µM. The same measure for `CC(C)C(C(=O)O)N1C(=O)C(=Cc2ccc(-c3ccccc3C(F)(F)F)o2)SC1=S` (stereo not shown) [Compound B104]: less than 10 µM; for `CC(C)C(C(=O)O)N1C(=O)C(=Cc2ccc(-c3cccc(C(F)(F)F)c3)o2)SC1=S` (stereo not shown) [Compound B105]: 11 to 40 µM; for `Cc1ccccc1-c1ccc(C=C2SC(=S)N(C(C(=O)O)C(C)C)C2=O)o1` (stereo not shown) [Compound B106]: 11 to 40 µM. The same measure for `CC(C)C(C(=O)O)N1C(=O)C(=Cc2ccc(-c3ccc(F)cc3)o2)SC1=S` (stereo not shown) [Compound B107]: 11 to 40 µM; for `CC(C)C(C(=O)O)N1C(=O)C(=Cc2ccc(-c3ccc(Cl)cc3Cl)o2)SC1=S` (stereo not shown) [Compound B108]: less than 10 µM. Consider `COc1ccc(-c2ccc(C=C3SC(=S)N(C(C(=O)O)C(C)C)C3=O)o2)cc1Cl` (stereo not shown) [Compound B109], for which the IC50 was less than 10 µM. The compound `CC(C)C(C(=O)O)N1C(=O)C(=Cc2ccc(-c3ccc(Cl)cc3[N+](=O)[O-])o2)SC1=S` (stereo not shown) [Compound B110] yielded an IC50 of 11 to 40 µM. In the case of `CC(C)C(C(=O)O)N1C(=O)C(=Cc2ccc(-c3ccc(Cl)c(Cl)c3)o2)SC1=S` (stereo not shown) [Compound B111] it was less than 10 µM. In the case of `COc1ccc(-c2ccc(C=C3SC(=S)N(C(C)C(=O)O)C3=O)o2)cc1Cl` (stereo not shown) [Compound B113] it was less than 10 µM; in that of `CC(C(=O)O)N1C(=O)C(=Cc2ccc(-c3ccc(Cl)cc3[N+](=O)[O-])o2)SC1=S` (stereo not shown) [Compound B114], 11 to 40 µM; in that of `CNS(=O)(=O)c1ccc(-c2ccc(C=C3SC(=S)N(CCCC(=O)O)C3=O)o2)cc1` [Compound B115], 41 to 80 µM. In the case of `O=C(O)C1CCCC(N2C(=O)C(=Cc3ccc(-c4ccccc4Cl)o3)SC2=S)C1` (stereo not shown) [Compound C1, 3-{5-[1-[5-(2-chloro-phenyl)-furan-2-yl]-methylidene]-4-oxo-2-thioxo-thiazolidin-3-yl}-cyclohexanecarboxylic acid] it was 11 to 40 µM; in that of `O=C(O)C1CCCC(N2C(=O)C(=Cc3ccc(-c4ccc(C5CCCCC5)cc4)o3)SC2=S)C1` (stereo not shown) [Compound C2, 3-{5-[1-[5-(4-cyclohexyl-phenyl)-furan-2-yl]-methylidene]-4-oxo-2-thioxo-thiazolidin-3-yl}-cyclohexanecarboxylic acid], less than 10 µM; in that of `CC(C)(C)c1ccc(-c2ccc(C=C3SC(=S)N(C4CCCC(C(=O)O)C4)C3=O)o2)cc1` (stereo not shown) [Compound C3, 3-{5-[1-[5-(4-tert-butyl-phenyl)-furan-2-yl]-methylidene]-4-oxo-2-thioxo-thiazolidin-3-yl}-cyclohexanecarboxylic acid], less than 10 µM. In turn, `CC(C)Cc1ccc(-c2ccc(C=C3SC(=S)N(C4CCCC(C(=O)O)C4)C3=O)o2)cc1` (stereo not shown) [Compound C4, 3-{5-[1-[5-(4-isobutyl-phenyl)-furan-2-yl]methylidene]-4-oxo-2-thioxo-thiazolidin-3-yl}-cyclohexanecarboxylic acid] gave an IC50 of less than 10 µM. In the case of `O=C(O)C1CCCC(N2C(=O)C(=Cc3ccc(-c4cccc(C(F)(F)F)c4)o3)SC2=S)C1` (stereo not shown) [Compound C5, 3-{5-[1-[5-(3-trifluoromethyl-phenyl)-furan-2-yl]-methylidene]-4-oxo-2-thioxo-thiazolidin-3-yl}-cyclohexanecarboxylic acid], the IC50 is less than 10 µM. The same measure for `O=C(O)C1CCCC(N2C(=O)C(=Cc3ccc(-c4ccc(Cc5ccccc5)cc4)o3)SC2=S)C1` (stereo not shown) [Compound C6, 3-{5-[1-[5-(4-benzyl-phenyl)-furan-2-yl]-methylidene]-4-oxo-2-thioxo-thiazolidin-3-yl}-cyclohexanecarboxylic acid]: less than 10 µM; for `O=C(O)C1CCCC(N2C(=O)C(=Cc3ccc(-c4ccc(F)cc4F)o3)SC2=S)C1` (stereo not shown) [Compound C7, 3-{5-[1-[5-(2,4-difluoro-phenyl)-furan-2-yl]-methylidene]-4-oxo-2-thioxo-thiazolidin-3-yl}-cyclohexanecarboxylic acid]: less than 10 µM. For the compound `Cc1ccc(-c2ccc(C=C3SC(=S)N(C4CCCC(C(=O)O)C4)C3=O)o2)c(C)c1` (stereo not shown) [Compound C8, 3-{5-[1-[5-(2,4-dimethyl-phenyl)-furan-2-yl]-methylidene]-4-oxo-2-thioxo-thiazolidin-3-yl}-cyclohexanecarboxylic acid], the IC50 was less than 10 µM. The same measure for `COc1ccc(-c2ccc(C=C3SC(=S)N(C4CCCC(C(=O)O)C4)C3=O)o2)c(C)c1` (stereo not shown) [Compound C9, 3-{5-[1-[5-(2-methyl-4-methoxy-phenyl)-furan-2-yl]-methylidene]-4-oxo-2-thioxo-thiazolidin-3-yl}-cyclohexanecarboxylic acid]: 11 to 40 µM. For the compound `Cc1ccccc1-c1cccc(C=C2SC(=S)N(C3CCCC(C(=O)O)C3)C2=O)n1` (stereo not shown) [Compound C10, 3-[4-Oxo-2-thioxo-5-(6-o-tolyl-pyridin-2-ylmethylene)-thiazolidin-3-yl]-cyclohexanecarboxylic acid], the IC50 is 41 to 80 µM. In the case of `Cc1cc(F)ccc1-c1ccc(C=C2SC(=S)N(C3CCCC(C(=O)O)C3)C2=O)o1` (stereo not shown) [Compound C11, 3-{5-[1-[5-(2-methyl-4-fluoro-phenyl)-furan-2-yl]-methylidene]-4-oxo-2-thioxo-thiazolidin-3-yl}-cyclohexanecarboxylic acid] it was less than 10 µM. The same measure for `Cc1ccc(-c2ccc(C=C3SC(=S)N(C4CCCC(C(=O)O)C4)C3=O)o2)c(F)c1` (stereo not shown) [Compound C12, 3-{5-[1-[5-(2-fluoro-4-methyl-phenyl)-furan-2-yl]-methylidene]-4-oxo-2-thioxo-thiazolidin-3-yl}-cyclohexanecarboxylic acid]: less than 10 µM; for `O=C(O)C1CCCC(N2C(=O)C(=Cc3ccc(-c4ccccc4O)o3)SC2=S)C1` (stereo not shown) [Compound C13, 3-{5-[1-[5-(2-hydroxy-phenyl)-furan-2-yl]-methylidene]-4-oxo-2-thioxo-thiazolidin-3-yl}-cyclohexanecarboxylic acid]: less than 10 µM.
